Results as given in patent US20100216160A1, “METHOD FOR THE SCREENING […] ACTIVITY-MODULATING AGENTS AND MEANS FOR CARRYIING OUT SAID METHOD” (CYTOMICS SYSTEMS, priority 2005, published 2010).
Residues, ends and D or L forms follow the SMILES beside them. *: point of attachment. Cbz = O=C(OCc1ccccc1)*

Tests used:
Type in all cases: cell-based, Saccharomyces cerevisiae
[1] = test system: proteasome of yeast cells (CYS343 strain, mAG-p21^WAF1/Cip1 fusion protein); test: Flow cytometric quantification (FACS) of fluorescence of mAG-p21WAF1/Cip1 fusion protein in CYS343 yeast cells; conditions: 50 μM MG132 added with 2% glucose after 120 minutes galactose, time D1h, D2h, D3h
Method: (§1) The yeast cells were cultured in the presence or in the absence of the MG132 proteasome inhibitor.
(§2) All the cells were cultured in minimal medium in the presence of galactose as a carbon source for 120 minutes.
(§3) At the end of these 120 minutes, 2% glucose was added to the culture, in the presence and in the absence of 50 μM of a known proteasome inhibitor, the MG132.
(§4) The fluorescence emitted by the cells was quantified using a FacsCalibur flow cytometer (Beckton-Dickinson), immediately before adding galactose (I0), 1 and 2 hour(s) following the addition of galactose (I1 and I2) and 1, 2 and 3 hours (D1, D2 and D3) following the addition of glucose. The presence of Mg132 in the culture is indicated by “+MG132”. The fluorescence is expressed in arbitrary units.

[2] = test system: proteasome of the recombinant yeast cells (CYS344 strain, mAG-p21[6KR]^WAF1/Cip1 fusion protein); test: Degradation of mAG-p21[6KR]WAF1/Cip1 fusion protein in CYS344 yeast cells, immunoblotting (Western blotting); conditions: 50 μM MG132 added with 2% glucose after 120 minutes galactose, 30, 60 and 120 minutes after glucose
Method: (§5) The degradation of the fusion proteins comprising p21^WAF1/Cip1 or p21[6KR]^WAF1/Cip1 fused with mAG by the proteasome of the recombinant yeast cells of CYS 344 and CYS 343 strains was controlled by an immunoblotting technique, in the presence or in the absence of a proteasome inhibitor, the Mg132 compound.
(§6) All the yeast strains used were cultured and analyzed in a similar way.
(§7) The cells were cultured in minimal medium in the presence of galactose as a carbon source for 120 minutes.
(§8) At the end of these 120 minutes, 2% glucose was added to the culture, in the presence and in the absence of 50 μM of a known proteasome inhibitor, the Mg 132.
The results are given on FIG. 3 (FIG. 3A and FIG. 3B). FIG. 3A illustrates the results obtained with the CYS344 recombinant yeast strain.
Total proteins were prepared before adding galactose (0), 60 and 120 minutes following the addition of galactose (+galactose 0, 60, 120) and 30, 60 and 120 minutes (+glucose, 30, 60, 120) following the addition of glucose.
(§9) These proteins were analyzed by immunoblotting technique (“Western blotting”) using an antibody that recognized the p21^WAF1/Cip1 part of the fusion proteins (noted “mAG-p21^WAF1/Cip1” or “mAG-p21[6KR]^WAF1/Cip1” on FIG. 3).
(§10) The presence of MG132 in the culture is indicated by “+MG132” on FIG. 3. […]

[3] = test system: proteasome of yeast cells (CYS344 strain, mAG-p21[6KR]^WAF1/Cip1 fusion protein); test: Flow cytometric quantification (FACS) of fluorescence of mAG-p21[6KR]WAF1/Cip1 fusion protein in CYS344 yeast cells; conditions: 50 μM MG132 added with 2% glucose after 120 minutes galactose, time D1h, D2h, D3h
Method: as §1, §2, §3, §4

[4] = test system: proteasome of yeast cells (CYS344 strain, mAG-p21[6KR]^WAF1/Cip1 fusion protein); test: Degradation of mAG-p21[6KR]WAF1/Cip1 fusion protein in CYS344 yeast cells, epifluorescence microscopy; conditions: 50 μM MG132 added with 2% glucose after 120 minutes galactose, 0, 60, 120, 180 minutes after glucose
Method: The yeast cells of the CYS344 strain were cultured in minimal medium in the presence of galactose as a carbon source for 120 minutes.
as §3
The cells were observed using an epifluorescence microscope (fluorescent microscope Nikon Eclipse fitted with an Omega XF116 filter). All the pictures were saved on a Hamamastu® camera using similar settings, then analyzed with the LUCIA G software, immediately before adding glucose (0 minute), and 60, 120 and 180 minutes (60, 120, 180 minutes) following the addition of glucose. The presence of MG132 in the culture is indicated by MG132″.

[5] = test system: proteasome of the recombinant yeast cells (CYS343 strain, mAG-p21^WAF1/Cip1 fusion protein); test: Degradation of mAG-p21WAF1/Cip1 fusion protein in CYS343 yeast cells, immunoblotting (Western blotting); conditions: 50 μM MG132 added with 2% glucose after 120 minutes galactose, 30, 60, 120 and 150 minutes after glucose
Method: as §5, §6, §7, §8
FIG. 3B illustrates the results obtained with the CYS343 recombinant yeast strain. Total proteins were prepared before adding galactose (0), 60 and 120 minutes following the addition of galactose (+galactose 0, 60, 120) and 30, 60, 120 and 150 minutes (+glucose, 30, 60, 120, 150) following the addition of glucose.
as §9, §10

CC(C)C[C@@H](C=O)NC(=O)[C@H](CC(C)C)NC(=O)[C@H](CC(C)C)NC(=O)OCc1ccccc1 [MG132] (Cbz-Leu-Leu-Leu-aldehyde)
degradation of the mAG-p21WAF1/Cip1 fusion protein (fluorescence, flow cytometry) [1]: strongly inhibited
degradation of the mAG-p21[6KR]WAF1/Cip1 fusion protein (Western blotting) [2]: inhibit the degradation of the fusion protein
degradation of the mAG-p21[6KR]WAF1/Cip1 fusion protein (fluorescence, flow cytometry) [3]: strongly inhibited
fluorescence signal intensity of mAG-p21[6KR]WAF1/Cip1 fusion protein versus culture time (epifluorescence microscopy) [4]: fluorescence signal intensity versus culture time was maintained
degradation of the mAG-p21[wt]WAF1/Cip1 fusion protein (Western blotting) [5]: inhibit the degradation of the fusion protein
